Assay results as given in US20070148723A1, “METHOD AND APPARATUS FOR DETECTING PRESENCE OF TOXIC MATERIAL WITHIN SAMPLE” (SAMSUNG ELECTRONICS CO., LTD., priority 2005, published 2007).

Key:
[1] = test system: electron transfer system of sub-mitochondrial particles; assay type: biochemical; conditions: for cathode peak current at 1.019 V relative to a sample of 0 wt %: 2.5 wt %, FIG. 4 / FIG. 5
Source text: FIGS. 1A is a diagram of an exemplary embodiment of a current measuring device; and FIG. 1B is a schematic diagram of an exemplary embodiment of a current measuring apparatus. Referring to FIG. 1A, a reaction vessel 10 includes an Ag/AgCl standard electrode 20 (RE in FIG. 1B), a platinum working electrode 30 (WE in FIG. 1B), and a platinum counter electrode 40 (CE in FIG. 1B). The standard electrode 20, the working electrode 30, and the counter electrode 40 are connected to a voltmeter 50 (e.g., a Perkin-Elmer VMP multichannel potentiostat; V in FIG. 1B). An X/Y plotter 60 is connected to the voltmeter 50. 0.5× PBS including 0.5 mg/ml of SMP (submitochondrial particle) (Havard Bioscience), 6 mM of NADH, and 50 mM of KCl was allowed to react at ambient temperature for 1 hour. […] The cyclic voltammogram was measured with a scan speed of 50 mV/sec CV at a sweep range of 0.85 to 1.35 V. […] FIG. 3 is a graph showing the cyclic voltammogram of 2.5 mM Ru(bpy)3^2+ in phosphate-buffered saline (PBS). Then, ethanol samples having final concentrations (on a weight basis) of 0 wt %, 2.5 wt %, 5 wt %, and 10 wt %, or a sample having 2.5 wt % of sorbitol was added to 0.5× PBS including 0.5 mg/ml of SMP, (submitochondrial particle), 6 mM of NADH, and 50 mM of KCl to prepare 7 ml of a final reaction solution and was allowed to react for 1 hour at ambient temperature. Next, absorbance of the final reaction solution was measured at 340 nanometers (nm) using a spectrophotometer and the concentration of NADH was measured using an optical method. […] The cyclic voltammogram was measured with a scan speed of 50 mV/sec CV at a sweep range of 0.85 to 1.35V.

[2] = test system: electron transfer system of sub-mitochondrial particles; test: Optical method: NADH concentration by absorbance at 340 nm of SMP/NADH reaction solution; assay type: biochemical; conditions: 2.5 wt %
Method: Then, ethanol samples having final concentrations (on a weight basis) of 0 wt %, 2.5 wt %, 5 wt %, and 10 wt %, or a sample having 2.5 wt % of sorbitol was added to 0.5× PBS including 0.5 mg/ml of SMP, (submitochondrial particle), 6 mM of NADH, and 50 mM of KCl to prepare 7 ml of a final reaction solution and was allowed to react for 1 hour at ambient temperature. Next, absorbance of the final reaction solution was measured at 340 nanometers (nm) using a spectrophotometer and the concentration of NADH was measured using an optical method. […] The cyclic voltammogram was measured with a scan speed of 50 mV/sec CV at a sweep range of 0.85 to 1.35V.

[3] = 0.5 mg/ml SMP, 6 mM NADH, 1 hour at ambient temperature

Row | Structure (SMILES) | effect on electron transfer reaction of sub-mitochondrial particles (toxicity) [1] | cathode peak current at 1.019 V relative to a sample of 0 wt % [1, 3] | toxicity by optical measurement ([2]; conclusion from absorbance at 340 nm) | absorbance at 340 nm compared to a sample of 0 wt % ([2]; spectrophotometer, data not illustrated) | cathode peak current at 1.019 V in a cyclic voltammogram as concentration increases ([1]; 0, 2.5, 5 and 10 wt %, 0.5 mg/ml SMP, 6 mM NADH, 1 hour at ambient temperature, FIG. 4)
1 | OC[C@@H](O)[C@@H](O)[C@H](O)[C@@H](O)CO [sorbitol] | does not include toxic material | moves towards a more negative value | no toxicity | no changes | –
2 | CCO [ethanol] | obstructs the electron transfer reaction of sub-mitochondrial particles | moves toward a less negative value | – | – | moves towards in less negative (i.e., more positive, cathodic) direction
